Measured values reported in US20230303547A1, “N-CYANOPYRROLIDINES WITH ACTIVITY AS USP30 INHIBITORS” (MISSION THERAPEUTICS LIMITED, priority 2020, published 2023).

Experiments:
[1] = tested on: HCT116 human colorectal carcinoma cells; assay: In vitro cytotoxicity (Cell Tox), alamarBlue; assay type: cell-based; details: 96-hour continual compound exposure
Description: There is also a need for compounds that have a favourable safety profile, which may be measured by a variety of standard in vitro and in vivo methods. A cell toxicity counter-screen may be used to assay the anti-proliferative/cytotoxic effect in a particular cell line (e.g. HCT116) by fluorometric detection of rezasurin (alamarBlue™) to resofurin in response to mitochondrial activity.
In Vitro Cytotoxicity (Cell Tox): Measured in HCT116 human colorectal carcinoma cells using alamarBlue™ as the assay endpoint. Compound cytotoxicity was measured over a period of 96-hour continual compound exposure.

Hepatocyte Cl human = assay type: in vitro ADME; details: human hepatocytes
Experimental: Hep Cl human: in vitro hepatocyte clearance in human cells.
Clu: in vitro clearance. Clu as defined here is the scaled clearance, in turn calculated from the intrinsic clearance. The intrinsic clearance is the predicted clearance due to hepatic metabolic reactions, determined from incubation of a compound in a hepatocyte preparation.

[2] = tested on: Eurofins CEREP SafetyScreen44 panel; assay: Eurofins CEREP SafetyScreen44 panel; assay type: binding
Description: Aside from selectivity over other DUB enzymes, it is important for a drug to have low affinity for other targets, and pharmacological profiling may be performed against panels of targets to assess the potential for, and to minimise, potential off-target effects. Examples of targets for which the compounds of the present invention may be screened against are those of the industry standard Eurofins-Cerep SafetyScreen44 panel, which includes 44 targets as a representative selection of GPCR receptors, transporters, ion channels, nuclear receptors, and kinase and non-kinase enzymes. Preferably, compounds of the invention have insignificant affinity against targets of this screening panel. Further examples of targets for which the compounds of the present invention may be screened against are kinases of the Thermo Fisher SelectScreen kinase profiling panel, which includes 39 targets as a representative selection of kinase enzymes. Preferably, compounds of the invention have insignificant affinity against targets of this screening panel. Additionally, examples of a particular enzyme class for which the compounds of the present invention may be screened against are the cathepsins (e.g. cathepsin A, B, C, H, K, L, L2, S, V and Z). Preferably, compounds of the invention have good selectivity for USP30 over one or more of these enzymes. […]

[3] = tested on: P-glycoprotein (MDR1), human; assay: MDR1-MDCK flux assay; assay type: in vitro ADME; details: dog, read-out: MDR1-MDCK Effective Efflux Ratio
Description: The treatment of CNS disorders, including Alzheimer’s disease, Parkinson’s disease, and other disorders described herein, requires drug molecules to target the brain, which requires adequate penetration of the blood brain barrier. […] The probability that a compound can cross the blood brain barrier may be measured by an in vitro flux assay utilizing a MDR1-MDCK cell monolayer (Madin-Darby Canine Kidney cells transfected with MDR-1 resulting in overexpression of the human efflux transporter P-glycoprotein). Additionally, exposure may also be measured directly in brain and plasma using in vivo animal models.
MDR1-MDCK (Madin-Darby Canine Kidney cell monolayer) (in vitro) flux assay.

TK6 cells = assay: In vitro micronucleus assay; assay type: cell-based; details: 27 hours recovery
Experimental: The micronucleus assay may be used to determine if a compound is genotoxic by evaluating the presence of micronuclei. Micronuclei may contain chromosome fragments produced from DNA breakage (clastogens) or whole chromosomes produced by disruption of the mitotic apparatus (aneugens).
(§1) Example 2 was assessed in the bacterial reverse mutation assay (Ames) and in vitro micronucleus assay. All in vitro tests were conducted with and without exogenous metabolic activation using concentrations up to those limited by cytotoxicity or insolubility.
Induction of chromosome damage was assessed using the in vitro micronucleus assay in TK6 cells. Example 2 was negative for induction of micronuclei when incubated for 3 hours in the presence of exogenous metabolic activation followed by 27 hours recovery, and also when incubated for 27 hours in the absence of exogenous metabolic activation followed by 27 hours recovery.

[4] = tested on: Salmonella typhimurium strains TA98, TA100, TA1535 and TA97a and the Escherichia Coli strain WP2 uvrA pKM101; assay: Bacterial reverse mutation assay (Ames); assay type: cell-based; details: up to 5000 µg/plate with and without metabolic activation
Experimental: The bacterial reverse mutation assay (Ames Test) may be used to evaluate the mutagenic properties of compounds of the invention, commonly by using the bacterial strain Salmonella typhimurium, which is mutant for the biosynthesis of the amino acid histidine.
as §1

WT-MDCK in vitro flux = assay type: in vitro ADME; details: dog
Description: WT-MDCK (wild-type) in vitro flux.

hERG potassium channel = hERG potassium channel (Homo sapiens (Human), UniProt Q12809); assay: hERG potassium channel current in CHO cells; assay type: cell-based; details: 30 µM, stably expressed CHO cells
Experimental: The hERG predictor assay provides valuable information about the possible binding of test compounds to the potassium channel and potential QT prolongation on […]. Inhibition of the hERG current causes QT interval prolongation resulting in potentially fatal ventricular tachyarrhythmia (Torsades de Pointes). Typically, assay data may be generated from an automated patch-clamp assay platform.
Example 2 was evaluated for effects on the hERG potassium channel, in stably expressed CHO cells at concentrations between 0.01 and 30 µM. Example 2 produced maximum inhibition value of 35% of the hERG current amplitude at 30 µM indicating little propensity for affecting the QT interval.

Chain of hERG potassium channel (Q12809 whole entry): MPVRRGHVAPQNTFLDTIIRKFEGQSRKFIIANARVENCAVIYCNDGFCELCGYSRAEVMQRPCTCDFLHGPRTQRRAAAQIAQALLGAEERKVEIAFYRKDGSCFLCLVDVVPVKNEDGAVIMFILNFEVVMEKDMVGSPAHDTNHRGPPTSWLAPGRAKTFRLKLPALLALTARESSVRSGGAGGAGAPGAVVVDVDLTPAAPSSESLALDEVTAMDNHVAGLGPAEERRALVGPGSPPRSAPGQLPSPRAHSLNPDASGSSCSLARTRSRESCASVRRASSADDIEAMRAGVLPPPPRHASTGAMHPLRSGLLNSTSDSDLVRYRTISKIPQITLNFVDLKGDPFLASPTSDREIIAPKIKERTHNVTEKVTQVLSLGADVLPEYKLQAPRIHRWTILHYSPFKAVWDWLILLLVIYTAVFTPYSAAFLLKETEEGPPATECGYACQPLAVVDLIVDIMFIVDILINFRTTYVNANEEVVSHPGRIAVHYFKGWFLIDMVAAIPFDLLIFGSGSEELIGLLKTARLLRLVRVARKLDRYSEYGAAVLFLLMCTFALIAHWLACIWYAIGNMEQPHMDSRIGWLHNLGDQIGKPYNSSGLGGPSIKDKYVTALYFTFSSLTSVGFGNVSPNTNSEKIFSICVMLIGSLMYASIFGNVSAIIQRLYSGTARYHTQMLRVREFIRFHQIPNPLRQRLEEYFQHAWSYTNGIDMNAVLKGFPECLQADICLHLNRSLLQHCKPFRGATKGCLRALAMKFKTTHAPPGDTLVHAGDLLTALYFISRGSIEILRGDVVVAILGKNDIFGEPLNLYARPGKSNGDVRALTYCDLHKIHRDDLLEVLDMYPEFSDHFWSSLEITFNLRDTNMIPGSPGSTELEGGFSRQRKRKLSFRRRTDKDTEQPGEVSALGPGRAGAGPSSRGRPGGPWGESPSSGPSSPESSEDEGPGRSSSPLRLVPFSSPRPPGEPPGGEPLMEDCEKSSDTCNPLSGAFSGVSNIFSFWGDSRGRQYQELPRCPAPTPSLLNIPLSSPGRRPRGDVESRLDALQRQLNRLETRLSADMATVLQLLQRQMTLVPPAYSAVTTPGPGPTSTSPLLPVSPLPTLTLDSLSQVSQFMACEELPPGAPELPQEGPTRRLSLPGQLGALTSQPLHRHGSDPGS

SMILES | EC50 ([1]; Homo sapiens, HCT-116, 96 h) [µM] | Hepatocyte Cl human Scaled Clu (Hepatocyte Cl human) [mL/min/kg] | affinity for targets in this assay [2] | EC50 [1] [µM] | efflux ratio [3] | induction of micronuclei (TK6 cells; 3 hours in the presence of exogenous metabolic activation) | induction of micronuclei (TK6 cells; 27 hours in the absence of exogenous metabolic activation) | induction of mutations in reverse mutation assay [4] | efflux ratio (WT-MDCK in vitro flux) | Papp A→B (WT-MDCK in vitro flux; A-B) [×10⁻⁶ cm/s] | maximum inhibition of the hERG current amplitude (hERG potassium channel) [%]
C[C@@H]1C[C@@H](NC(=O)c2ncc(-c3cc(C#N)ccc3OC3CC3)o2)CN1C#N [Example 1, 5-(5-cyano-2-cyclopropoxyphenyl)-N-((3R,5R)-1-cyano-5-methylpyrrolidin-3-yl)oxazole-2-carboxamide] | 23.8 | 18.6 | low affinity |  |  |  |  |  |  |  | 
COC[C@@H]1C[C@@H](NC(=O)c2ncc(-c3cc(C#N)ccc3OC3CC3)o2)CN1C#N [Example 2, 5-(5-cyano-2-cyclopropoxyphenyl)-N-((3R,5S)-1-cyano-5-(methoxymethyl)pyrrolidin-3-yl)oxazole-2-carboxamide] | 27.1 | 5.0 |  | > 30 | 15 | negative | negative | did not induce mutations | 0.7 | 10.7 | 35
